Measurements published in ChEMBL document CHEMBL1137771, “Non-nucleoside inhibitors of HCV polymerase NS5B. Part 2: Synthesis and structure-activity relationships of benzothiazine-substituted quinolinediones” (Bioorg Med Chem Lett, 2009).
≈ marks a conversion by molar mass, not a printed value.

What was measured:
Hepatitis C virus [1] = assay: Inhibition of HCV genotype 1b isolate con1 NS5B polymerase assessed as incorporation of radiolabeled nucleotide into RNA product; design: species or system Hepacivirus hominis
[2] = Cytotoxicity against human 2209-23 cells by WST1 assay; format: cell-based
Hepatitis C virus [3] = assay: Antiviral activity against HCV genotype 1b isolate con1 infected in human 2209-23 cells assessed as inhibition of [3H]thymidine incorporation into DNA by scintillation proximity assay in presence of 5% fetal bovine serum; format: functional, organism-based, Hepacivirus hominis; conditions: isolate Con1, 2209-23
Hepatitis C virus [4] = assay: Antiviral activity against HCV genotype 1b isolate con1 infected in human 2209-23 cells assessed as inhibition of [3H]thymidine incorporation into DNA by scintillation proximity assay in presence of 40% human serum albumin; format: functional, organism-based, Hepacivirus hominis; conditions: isolate Con1, 2209-23
Hepatitis C virus [5] = assay: Ratio of EC50 for HCV genotype 1b isolate con1 in presence of human serum albumin to EC50 for HCV genotype 1b isolate con1 in presence of fetal bovine serum; format: functional, Hepacivirus hominis
[6] = Half life in rat at 2 mg/kg, iv; format: ADME, organism-based; design: dose 2 mg/kg, route intravenous; conditions: in vivo
Caco-2 = assay: Efflux ratio of permeability from […] side in human Caco-2 cells after 21 days; format: ADME, cell-based; conditions: caco-2, 504 h
[7] = Metabolic stability in rat liver microsomes; format: ADME, Microsome; conditions: read-out: Stability
[8] = Metabolic stability in dog liver microsomes; format: ADME, Canis lupus familiaris, Microsome; conditions: read-out: Stability
[9] = Cmax in rat at 2 mg/kg, iv; format: ADME, organism-based; design: dose 2 mg/kg, route intravenous; conditions: in vivo
[10] = Cmax in rat at 5 mg/kg, po; format: ADME, organism-based; design: dose 5 mg/kg, route oral; conditions: in vivo
[11] = Cmax in dog at 1 mg/kg, iv; format: ADME, organism-based, Canis lupus familiaris; design: dose 1 mg/kg, route intravenous; conditions: in vivo
[12] = Cmax in dog at 1 mg/kg, po; format: ADME, organism-based, Canis lupus familiaris; design: dose 1 mg/kg, route oral; conditions: in vivo
[13] = AUC in rat at 2 mg/kg, iv; format: ADME, organism-based; design: dose 2 mg/kg, route intravenous; conditions: plasma
[14] = AUC in dog at 1 mg/kg, iv; format: ADME, organism-based, Canis lupus familiaris; design: dose 1 mg/kg, route intravenous; conditions: plasma
[15] = AUC in dog at 1 mg/kg, po; format: ADME, organism-based, Canis lupus familiaris; design: dose 1 mg/kg, route oral; conditions: plasma
[16] = Clearance in rat at 2 mg/kg, iv; format: ADME, organism-based; design: dose 2 mg/kg, route intravenous; conditions: in vivo
[17] = Half life in dog at 1 mg/kg, iv; format: ADME, organism-based, Canis lupus familiaris; design: dose 1 mg/kg, route intravenous; conditions: in vivo
[18] = Clearance in dog at 1 mg/kg, iv; format: ADME, organism-based, Canis lupus familiaris; design: dose 1 mg/kg, route intravenous; conditions: in vivo
[19] = Half life in dog at 1 mg/kg, po; format: ADME, organism-based, Canis lupus familiaris; design: dose 1 mg/kg, route oral; conditions: in vivo
[20] = Drug concentration in rat liver at 5 mg/kg, po after 2 hrs; format: ADME, organism-based; design: dose 5 mg/kg, route oral; conditions: read-out: Drug uptake
[21] = Drug concentration in rat liver at 5 mg/kg, po after 6 hrs; format: ADME, organism-based; design: dose 5 mg/kg, route oral; conditions: read-out: Drug uptake
serum albumin = serum albumin (Homo sapiens, UniProt P02768); assay: Binding affinity to human serum albumin; format: ADME; conditions: read-out: PB (converted)
Sequence of serum albumin (P02768 whole entry): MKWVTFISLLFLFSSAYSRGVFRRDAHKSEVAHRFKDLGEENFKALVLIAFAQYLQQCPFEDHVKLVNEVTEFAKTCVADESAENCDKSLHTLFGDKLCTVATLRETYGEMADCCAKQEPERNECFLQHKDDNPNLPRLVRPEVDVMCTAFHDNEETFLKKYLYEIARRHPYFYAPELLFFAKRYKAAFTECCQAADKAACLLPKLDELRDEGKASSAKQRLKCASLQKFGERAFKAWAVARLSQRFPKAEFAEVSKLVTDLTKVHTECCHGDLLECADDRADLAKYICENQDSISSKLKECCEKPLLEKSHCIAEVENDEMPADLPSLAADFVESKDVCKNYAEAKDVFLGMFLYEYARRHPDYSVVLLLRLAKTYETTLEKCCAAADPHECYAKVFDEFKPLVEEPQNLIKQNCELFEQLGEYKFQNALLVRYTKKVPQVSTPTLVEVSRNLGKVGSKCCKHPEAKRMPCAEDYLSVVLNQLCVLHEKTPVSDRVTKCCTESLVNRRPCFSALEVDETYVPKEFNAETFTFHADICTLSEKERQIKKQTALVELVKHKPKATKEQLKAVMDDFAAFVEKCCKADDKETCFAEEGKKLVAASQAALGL

[22] = Cmax in male rat at 10 mg/kg, po after 1 day; format: ADME, organism-based; design: dose 10 mg/kg, route oral; conditions: in vivo
[23] = Cmax in male rat at 10 mg/kg, po after 7 days; format: ADME, organism-based; design: dose 10 mg/kg, route oral; conditions: in vivo
[24] = Cmax in female rat at 10 mg/kg, po after 1 day; format: ADME, organism-based; design: dose 10 mg/kg, route oral; conditions: in vivo
[25] = Cmax in female rat at 10 mg/kg, po after 7 days; format: ADME, organism-based; design: dose 10 mg/kg, route oral; conditions: in vivo
[26] = Cmax in male rat at 100 mg/kg, po after 1 day; format: ADME, organism-based; design: dose 100 mg/kg, route oral; conditions: in vivo
[27] = Cmax in male rat at 100 mg/kg, po after 7 days; format: ADME, organism-based; design: dose 100 mg/kg, route oral; conditions: in vivo
[28] = Cmax in female rat at 100 mg/kg, po after 1 day; format: ADME, organism-based; design: dose 100 mg/kg, route oral; conditions: in vivo
[29] = Cmax in female rat at 100 mg/kg, po after 7 days; format: ADME, organism-based; design: dose 100 mg/kg, route oral; conditions: in vivo
[30] = Cmax in male rat at 500 mg/kg, po after 1 day; format: ADME, organism-based; design: dose 500 mg/kg, route oral; conditions: in vivo
[31] = Cmax in male rat at 500 mg/kg, po after 7 days; format: ADME, organism-based; design: dose 500 mg/kg, route oral; conditions: in vivo
[32] = Cmax in female rat at 500 mg/kg, po after 1 day; format: ADME, organism-based; design: dose 500 mg/kg, route oral; conditions: in vivo
[33] = AUC (0 to 24 hrs) in male rat at 10 mg/kg, po after 1 day; format: ADME, organism-based; design: time < 24 hr, dose 10 mg/kg, route oral; conditions: plasma
[34] = AUC in male rat at 10 mg/kg, po after 7 days; format: ADME, organism-based; design: dose 10 mg/kg, route oral; conditions: plasma
[35] = AUC (0 to 24 hrs) in female rat at 10 mg/kg, po after 1 day; format: ADME, organism-based; design: time < 24 hr, dose 10 mg/kg, route oral; conditions: plasma
[36] = AUC in female rat at 10 mg/kg, po after 7 days; format: ADME, organism-based; design: dose 10 mg/kg, route oral; conditions: plasma
[37] = AUC (0 to 24 hrs) in male rat at 100 mg/kg, po after 1 day; format: ADME, organism-based; design: time < 24 hr, dose 100 mg/kg, route oral; conditions: plasma
[38] = AUC in male rat at 100 mg/kg, po after 7 days; format: ADME, organism-based; design: dose 100 mg/kg, route oral; conditions: plasma
[39] = AUC (0 to 24 hrs) in female rat at 100 mg/kg, po after 1 day; format: ADME, organism-based; design: time < 24 hr, dose 100 mg/kg, route oral; conditions: plasma
[40] = AUC in female rat at 100 mg/kg, po after 7 days; format: ADME, organism-based; design: dose 100 mg/kg, route oral; conditions: plasma
[41] = AUC (0 to 24 hrs) in male rat at 500 mg/kg, po after 1 day; format: ADME, organism-based; design: time < 24 hr, dose 500 mg/kg, route oral; conditions: plasma
[42] = AUC in male rat at 500 mg/kg, po after 7 days; format: ADME, organism-based; design: dose 500 mg/kg, route oral; conditions: plasma
[43] = AUC (0 to 24 hrs) in female rat at 500 mg/kg, po after 1 day; format: ADME, organism-based; design: time < 24 hr, dose 500 mg/kg, route oral; conditions: plasma
[44] = AUC in female rat at 500 mg/kg, po after 7 days; format: ADME, organism-based; design: dose 500 mg/kg, route oral; conditions: plasma
[45] = Cmin (24 hrs) in male rat at 100 mg/kg, po after 1 day; format: ADME, organism-based; design: dose 100 mg/kg, route oral; conditions: in vivo, read-out: Cmin
[46] = Cmin (24 hrs) in female rat at 100 mg/kg, po after 1 day; format: ADME, organism-based; design: dose 100 mg/kg, route oral; conditions: in vivo, read-out: Cmin
[47] = Cmin (24 hrs) in male rat at 500 mg/kg, po after 1 day; format: ADME, organism-based; design: dose 500 mg/kg, route oral; conditions: in vivo, read-out: Cmin
[48] = Cmin (24 hrs) in female rat at 500 mg/kg, po after 1 day; format: ADME, organism-based; design: dose 500 mg/kg, route oral; conditions: in vivo, read-out: Cmin
[49] = Toxicity in rat assessed as adverse effects after 7 days; format: organism-based; conditions: in vivo
[50] = Ratio of drug level from liver to plasma in po dosed rat after 24 hrs; format: ADME, organism-based
[51] = Solubility of the compound; format: physicochemical
[52] = Cmax in female dog at 2 mg/kg, po dosed as nanosized particles; format: ADME, organism-based, Canis lupus familiaris; design: dose 2 mg/kg, route oral; conditions: in vivo
[53] = Cmax in female dog at 2 mg/kg, po dosed as normal particles; format: ADME, organism-based, Canis lupus familiaris; design: dose 2 mg/kg, route oral; conditions: in vivo
[54] = Cmax in female dog at 2 mg/kg administered intraduodenally as cannula dose; format: ADME, organism-based, Canis lupus familiaris; design: dose 2 mg/kg, route intraduodenal; conditions: in vivo
Hepatocyte = assay: Metabolic stability in rat hepatocytes assessed per 10^6 cells; format: ADME, cell-based
[55] = Cmax in female rat at 500 mg/kg, po after 7 days; format: ADME, organism-based; design: dose 500 mg/kg, route oral; conditions: in vivo

With Cc1cc(Cn2c(=O)c(C3=CS(=O)(=O)c4cc(NS(C)(=O)=O)ccc4N3)c(O)c3cc(F)ccc32)ccc1F the IC50 (Hepatitis C virus [1]) was 0.013 µM, the CC50 [2] was greater than 50 µM and the EC50 (Hepatitis C virus [3]) was 0.023 µM. The EC50 (Hepatitis C virus [4]) was 0.088 µM, the “fold change (FC)” value (Hepatitis C virus [5]) was 9.2 and the half-life [6] was 1.1 h. The Ratio (Caco-2) was 3.78, the microsomal CLint [7] was 126 µL/min/mg and the microsomal CLint [8] was 24 µL/min/mg. The Cmax [9] was 130 ng/mL, the Cmax [10] was 2 ng/mL and the Cmax [11] was 4350 ng/mL. It also gave a Cmax [12] of 10.6 ng/mL, an AUC [13] of 158 ng·h/mL and an AUC [14] of 954 ng·h/mL. It also gave an AUC [15] of 34.8 ng·h/mL, a clearance [16] of 186 mL/min/kg and a half-life [17] of 1.6 h. It also gave a clearance [18] of 19 mL/min/kg, a half-life [19] of 1.2 h and a concentration at 2 h [20] of 151 ng/g. The concentration at 6 h [21] was 22 ng/g, the fraction unbound (serum albumin) was 0.002 and the Cmax [22] was 2.06 ng/mL. The Cmax [23] was 2.76 ng/mL, the Cmax [24] was 3.26 ng/mL and the Cmax [25] was 2.8 ng/mL. The Cmax [26] was 20.4 ng/mL, the Cmax [27] was 21.1 ng/mL and the Cmax [28] was 13 ng/mL. For the same compound, the Cmax [29] was 15.8 ng/mL, the Cmax [30] was 93.2 ng/mL and the Cmax [31] was 152 ng/mL. For the same compound, the Cmax [32] was 48.2 ng/mL, the AUC(0-t) at 24 h [33] was 25.4 ng·h/mL and the AUC at 168 h [34] was 34.4 ng·h/mL. It also gave an AUC(0-t) at 24 h [35] of 25.6 ng·h/mL, an AUC at 168 h [36] of 21.2 ng·h/mL and an AUC(0-t) at 24 h [37] of 223 ng·h/mL. It also gave an AUC at 168 h [38] of 322 ng·h/mL, an AUC(0-t) at 24 h [39] of 116 ng·h/mL and an AUC at 168 h [40] of 299 ng·h/mL. It also gave an AUC(0-t) at 24 h [41] of 821 ng·h/mL, an AUC at 168 h [42] of 1910 ng·h/mL and an AUC(0-t) at 24 h [43] of 701 ng·h/mL. It also gave an AUC at 168 h [44] of 1470 ng·h/mL, a concentration at 24 h [45] of 2.8 ng/mL and a concentration at 24 h [46] of 2.1 ng/mL. For the same compound, the concentration at 24 h [47] was 11.3 ng/mL, the concentration at 24 h [48] was 1.3 ng/mL and the NOAEL at 168 h [49] was greater than 500 mg/kg/day. The Kp at 24 h [50] was 10, the solubility [51] was 6.7 µg/mL (≈ 11.7 µM) and the Cmax [52] was less than 15 ng/mL. For the same compound, the Cmax [53] was less than 15 ng/mL, the Cmax [54] was less than 15 ng/mL and the Stability (Hepatocyte) was 1.6 µL/min. The Cmax [55] was 89.3 ng/mL.
